In patent US8772022B2, “Hepatitis C virus expressing reporter tagged NS5A protein” (Hvidovre Hospital, priority 2008, dated 2014):

System: Huh7.5 cells
Test: Supernatant infectivity titer, focus forming unit (FFU) method on Huh7.5 cells
Type: cell-based, human
Description: To determine the efficiency of the developed system, HCV RNA titers are determined in IU/ml (international units/ml) with Taq-Man Real-Time-PCR and infectious titers are determined with a focus-forming units (FFU) method: in this method, infectivity titers are determined by infection of cell culture replicates with serial dilutions of virus containing supernatants and, following immuno-stainings for HCV antigens, counting of HCV-antigen positive cell foci. Alternatively the infectious titers are determined as 50% tissue culture infectious dose.
Viral spread was monitored by HCV Core and NS5A immunostainings with mouse anti-HCV core protein monoclonal antibody (B2) (Anogen, Yes Biotech Laboratories) or anti-NS5A, 9E10, respectively, as described in the following section. For reporter viruses tagged with fluorescent reporter gene, viral spread was also monitored by direct visualization of the reporter gene by fluorescence microscopy. For reporter viruses tagged with hRLuc reporter gene, viral spread was also monitored by luminescence-based assay as described below. Supernatant infectivity titers were determined as 50% tissue culture infectious dose (TCID50)/mL or as focus forming units (FFU)/mL, as described in the following section. Supernatant HCV RNA titers were measured by a 5′ UTR based Real Time RT-PCR as described below.
Viral infectivity titers were determined by the tissue culture infectious dose 50 (TCID50) or focus forming unit method. 6×10^3/well naive Huh7.5 cells were plated out in a poly-D-lysine coated 96-well plate (Nunc) the day before infection. Cells were then incubated with 10-fold dilutions of cell culture supernatants. For TCID50 determinations, 6 replicates per dilution were incubated for 2-3 days. For FFU determinations, wells were incubated for 48 rs. After incubation, cells were permeabilized for 5′ with cold methanol. After washing 1× with PBS and 1× with PBS/Tween-20, blocking was carried out for 20′ with sterile filtered 1% BSA/0.2% skim milk in PBS followed by a 5′ blocking of endogenous peroxidase activity using 3% H2O2. Cells were washed as above and incubated with a 1:200 dilution of 1° Ab α-NS5A (9E10) in PBS/0.1% tween-20 over night at 4° C. After washing, a 1:300 dilution of 2° Ab HRP-goat anti-mouse IgG (H+L) (Amersham Biosciences) in PBS/0.1% tween-20 was added and incubated for 30′ at room temperature. Staining was developed using DAB substrate kit (DAKO) for 30′ after washing. In TCID50 determinations, wells were scored positive if one or more cells were infected, and the TCID50 was calculated according to the Reed and Muench method. TCID50 values are derived from single or multiple determinations as indicated. FFU determinations are based on counts of wells with 5-100 FFU and three independent virus dilutions with one replicate each. Counts were obtained by counting FFU by eye or by using automated counting on an ImmunoSpot Series 5 UV Analyzer (CTL Europe GmbH) with customized software kindly provided by CTL. From FFU counts in experimental wells, the mean of spot counts of at least 6 negative control wells was subtracted (˜usually 3 to 15 spots).

[1] = day 5 post transfection, Huh7.5
[2] = day 8 post transfection, Huh7.5

Substance	Infectivity titer of transfection supernatant Log10 (FFU/mL) [1]	Infectivity titer of transfection supernatant Log10 (FFU/mL) [2]	Infectivity titer of transfection supernatant Log10 (FFU/mL) (day 5 post transfection, * another, independent transfection experiment)	Infectivity titer of transfection supernatant Log10 (FFU/mL) (day 7 post transfection, * another, independent transfection experiment)
S52^5′UTR-NS2/JFH1T2717G, A4549C: 3a Core-NS2 recombinant with homotypic 3a (S52) 5′UTR	4.57 Log10 (FFU/mL)	4.53 Log10 (FFU/mL)		
H77^5′UTR/J4^C-NS2/JFH1T2997C, A4828T: 1b Core-NS2 recombinant with heterotypic 1a (H77) 5′UTR	3.32 Log10 (FFU/mL)	2.49 Log10 (FFU/mL)		
S52^5′UTR/HK6a^C-NS2/JFH1T1388C, A1589C: 6a Core-NS2 recombinant with heterotypic 3a (S52) 5′UTR	3.29 Log10 (FFU/mL)	3.15 Log10 (FFU/mL)		
H77^5′UTR/HK6a^C-NS2/JFH1T1390C, A1591C: 6a Core-NS2 recombinant with heterotypic 1a (H77) 5′UTR	3.60 Log10 (FFU/mL)	3.23 Log10 (FFU/mL)		
H77^5′UTR/J8^C-NS2/JFH1: 2b Core-NS2 recombinant with heterotypic 1a (H77) 5′UTR	3.41 Log10 (FFU/mL)	2.58 Log10 (FFU/mL)		
S52^5′UTR/J8^C-NS2/JFH1: 2b Core-NS2 recombinant with heterotypic 3a (S52) 5′UTR	3.08 Log10 (FFU/mL)	2.10 Log10 (FFU/mL)		
S52^5′UTR/J4^C-NS2/JFH1T2995C, A4826T: 1b Core-NS2 recombinant with heterotypic 3a (S52) 5′UTR	2.03 Log10 (FFU/mL)	1.67 Log10 (FFU/mL)		
J4^5′UTR-NS2/JFH1T2997C, A4828T: 1b Core-NS2 recombinant with homotypic 1b (J4) 5′UTR	2.47 Log10 (FFU/mL)	2.07 Log10 (FFU/mL)		
HK6a^5′UTR-NS2/JFH1T1391C, A1592C: 6a Core-NS2 recombinant with homotypic 6a (HK6a) 5′UTR			4.57 Log10 (FFU/mL)	4.39 Log10 (FFU/mL)
H77^5′UTR/S52^C-NS2/JFH1T2719G, A4551C: 3a Core-NS2 recombinant with heterotypic 1a (H77) 5′UTR	4.07 Log10 (FFU/mL)	4.22 Log10 (FFU/mL)		
J8^5′UTR-NS2/JFH1: 2b Core-NS2 recombinant with homotypic 2b (J8) 5′UTR	3.94 Log10 (FFU/mL)	3.75 Log10 (FFU/mL)		
